Patent US20260209152A1, “Substituted Hydroxystilbene Compounds and Derivatives, Synthesis and Uses Thereof” (Kynan Duke IP, LLC, priority 2019, published 2026)
Read-outs that look alike come from different tables or passages of the source.

Key:
[1] = tested on: IL-2 secretion from human CD4-positive T-cells stimulated with antiCD2/antiCD3/antiCD28-coated beads; assay: T-cell IL-2 assay (assay number 1297, 1298); assay type: cell-based; conditions: for Max Eff.: IL-2 (1297): highest effect as percentage of control maximum effect; for EC50: inhibition of IL-2 secretion, human CD4-positive T-cells, read-out: Abs EC50: IL-2 (1297)
Procedure: Inhibition of IL-4 and IL-2 secretion from human CD4-positive T-cells stimulated with antiCD2/antiCD3/antiCD28-coated beads. LEO Pharma Open Innovation assay number 1297, 1298, 1299.
Then the level of secreted of IL-4 is measured in the culture supernatant using electrochemiluminescence (MSD kits, Meso Scale Discovery), IL-2 is measured by proximity homogenous time-resolved fluorescence (HTRF) and the amount of living cells is measured by addition of resazurin (PrestoBlue®) to allow identifying compounds that inhibit T-cell proliferation or viability.
• Peripheral blood mononuclear cells (PBMC) are isolated from fresh human buffy coats by centrifugation on Lymphoprep® following instructions from Sebmate™ (Stemcell). • The cells are resuspended in 30 ml of PBS+2% Serum and counted. • CD4 positive T-cells are isolated from freshly isolated PBMC using EasySep™ humane CD4+ T-cell Isolation Kit (Catalog #17952) and following the manufacturer's protocol. • Cells are spun down and resuspended in freezing medium (X-vivo 15+10% FBS+5% DMSO) • Cells are frozen in aliquots of 3×10^7 cells/vial matching one 384 plate. Cells are place in Coolcell box and place in −80° C. freezer for one day then transferred to the −150° C. freezer in a prechilled box.
• Prepare assay medium: 500 ml X-Vivo 15+5 ml Glutamax (2 mM final)+5 ml pen/strep (100 U/ml final). • Add 5 μL medium to the wells of a 384 well plate (Greiner cat. No 788986). • CD4+ Cells: Thaw frozen cells from −150° C. freezer in 37° C. bath, and pipette the cells into 10 ml medium. Spin 10 min @170 g. • Resuspend pellet in 3.5 ml per 2.5×10^7 cells and add 10 μL per well to the plate (40000 cells/well) • Test compounds: Prepare compound-containing source plate, i.e. titrations in DMSO to be transferred to the assay plate. • Add 25 nL compounds and controls from the source plate to the assay plate (with cells). • Beads (T Cell Activation/Expansion Kit-human, Miltenyi Biotech, cat. no. 130-091-441): Coat beads with antibodies according to the kit procedure. • Add 10 μL beads to each well except for the negative controls. One bead per cell. Add 10 μL medium to the negative controls. • Incubate plates at 37° C., 5% CO2/95% air for 2 days.
• Remove plates from incubation and equilibrate to room temperature for 30 minutes. • IL-4 concentration in 10 μL supernatant is measured using an MSD IL-4 384-plate kit (Custom made) according to manufacturer protocol. • IL-2 concentrations in the supernatant is measured by an IL-2 HTRF kit, CisBio, cat. No 62HIL02PEH. • Add 4 μL medium to white proxi 384-well plates • Add 1 μL supernatant. • Add 4 μL mHTRF mix (each diluted 1:300 in ⅔ reconstitution buffer and ⅓ assay medium). • Spin the plates for 1 minute at 170 g • Seal and incubate overnight and read fluorescence in a plate reader • The amount of viable cells is measured by PrestoBlue® reagent • Add 15 μL diluted PrestoBlue® reagent (resazurin) corresponding to 2.5 μL Prestoblue/well to the assay plate. • Incubate overnight at 37° C./5% CO2. The fluorescence in the wells is measured (Ex615/Em 535).
IL-4 concentration in the supernatants is measured using electrochemiluminescence (MSD kits, Meso Scale Discovery). IL-2 concentration in the supernatants is measured using homogeneous time-resolved fluorescence resonance (TR-FRET). The assay is quantified by measuring fluorescence at 665 nm (proportional to IL-2 concentration) and 620 nm (control). A ratio 665/620*1000 is calculated.
The capacity of the test compound to inhibit IL-4 and IL-2 release is normalized to the signal in the negative control wells with un-stimulated T-cells.

[2] = tested on: CCL2 release from IL-4, IL-13, IL-22 and IFN-γ-stimulated primary human keratinocytes; assay: Keratinocyte CCL2 release (LEO Pharma Open Innovation assay number 1280); assay type: cell-based; conditions: for EC50 / Emax: Homo sapiens, Keratinocyte; for Max Eff.: CCL2 (1280): highest effect as percentage of control maximum effect; for Emax: read-out: maximum efficacy, CCL2 secretion
Procedure: Inhibition of CCL2 release from IL-4, IL-13, IL-22 and IFN-γ-stimulated primary human keratinocytes LEO Pharma Open Innovation assay number 1280
The inflammatory skin disease atopic dermatitis (AD) is characterized by the T-cell cytokines including IL-4, IL-13, IL-22 and IFN-γ. In the present assay, keratinocytes are stimulated with a mixture of these cytokines, and the release of CCL2 (also called monocyte chemoattractant protein 1 (MCP-1)) is measured in the culture supernatant by proximity homogenous time-resolved fluorescence (HTRF). […] Compound which inhibit keratinocyte CCL2 secretion may be expected to have efficacy in atopic dermatitis.
HEKa are human epidermal keratinocytes isolated from adult skin. The cells have been cryopreserved at the end of the primary culture stage in a medium containing 10% DMSO. Sterile cell culture work applies.
• Trypsinize the cells as described above. • Resuspend pellet in 10 ml assay medium (EpiLife Medium with HKGS Kit but without hydrocortisone) • Filter the cells though a 37 µm strainer. • Count cells using a cell counter. • Seed HEKa cells in 384-well view plates 3500 c/w/40 μL. • Place the plates with lids on in a humidity chamber with lid (24.5×24.5 cm box added H2O in the bottom). • Incubate plates over night at 37° C., 5% CO2/95% air
• Prepare compound-containing source plate, i.e. titrations in DMSO to be transferred to the assay plate. • Add 80 nL compounds and controls from the source plate to the assay plate (with cells). • Add 40 μL stimulation (recombinant human interleukin (IL) 4, 13, 22 at 10 ng/mL and Interferon-gamma at 1 ng/mL) in medium with supplement, but without hydrocortisone. • Incubate plates at 37° C., 5% CO2/95% air for 2 days.
• Remove plates from incubation and equilibrate to room temperature for 30 minutes. • Transfer […] supernatant to white proxi 384-well plates for CCL2 detection. • Add […] media to the detection plate. • Add […] CCL2 HTRF detection reagent (to the white proxi 384w). • Seal and incubate for 4 hours and read in a plate reader.
CCL2 concentration in the supernatants is measured using homogeneous time-resolved fluorescence resonance (TR-FRET). The assay is quantified by measuring fluorescence at 665 nm (proportional to CCL2 concentration) and 620 nm (control). A ratio 665/620*1000 is calculated.

[3] = half maximal effective concentration relative to control, inhibition of CCL2 release, keratinocytes, read-out: Abs EC50: CCL2 (1280)
[4] = read-out: EC50, inhibition of keratinocyte CCL2 secretion

Structure (SMILES) | Max Eff.: IL-2 (1297) [1] [%] | EC50 [1] [nM] | EC50 [2, 3] [nM] | Max Eff.: CCL2 (1280) [2] [%] | EC50 [2, 4] [nM] | Emax [2] [%] | inhibition of IL-2 secretion, in words [1] | reduction of CCL2 release, in words [2]
COc1cc(/C=C/c2cc(O)cc(OC)c2CC=C(C)C)ccc1O [Compound 1, (E)-3-(4-hydroxy-3-methoxystyryl)-5-methoxy-4-(3-methylbut-2-en-1-yl)phenol] | 42 | 5000 | 123 | 101 |  |  |  | 
CCOc1cc(O)cc(/C=C/c2ccc(O)c(OC)c2)c1CC=C(C)C [Compound 8, (E)-3-Ethoxy-5-(4-hydroxy-3-methoxystyryl)-4-(3-methylbut-2-en-1-yl)phenol] | 51 | 5000 | 50 | 102 |  |  |  | 
CCOc1cc(O)cc(/C=C/c2ccc(O)c(O)c2)c1CC=C(C)C [Compound 20, (E)-4-(3-Ethoxy-5-hydroxy-2-(3-methylbut-2-en-1-yl)styryl)benzene-1,2-diol] | 34 | 5000 | 108 | 99 |  |  |  | 
COc1cc(/C=C/c2cc(O)cc(OC)c2CC=C(C)C)ccc1NC=O [Compound 27, (E)-N-(4-(5-hydroxy-3-methoxy-2-(3-methylbut-2-en-1-yl)styryl)-2-methoxyphenyl)formamide] | 46 | 5000 | 32 | 100 | 32 | 100 |  | 
CCOc1cc(O)cc(/C=C/c2ccc(NC=O)c(OC)c2)c1CC=C(C)C [Compound 28, (E)-N-(4-(3-Ethoxy-5-hydroxy-2-(3-methylbut-2-en-1-yl)styryl)-2-methoxyphenyl)formamide] | 55 | 4260 | 40 | 100 | 40 | 100 | lower potency effect | medium potency reduction of CCL2 release
COc1cc(/C=C/c2cc(O)cc(OC)c2CC=C(C)C)ccc1NC(=O)CN [Compound 31, (E)-2-amino-N-(4-(5-hydroxy-3-methoxy-2-(3-methylbut-2-en-1-yl)styryl)-2-methoxyphenyl)acetamide] | 36 | 5000 | 445 | 100 |  |  |  | 
CCOc1cc(O)cc(/C=C/c2ccc(NC(=O)C(=O)O)c(OC)c2)c1CC=C(C)C [Compound 35, (E)-2-((4-(3-Ethoxy-5-hydroxy-2-(3-methylbut-2-en-1-yl)styryl)-2-methoxyphenyl)amino)-2-oxoacetic acid] | 16 | 5000 | 1130 | 79 |  |  |  | 
